Assay results as given in ChEMBL document CHEMBL3352151, “In vitro and in vivo antibacterial evaluation and mechanistic study of ornithine based small cationic lipopeptides against antibiotic resistant clinical isolates” (Eur J Med Chem, 2014).
In brackets after ≈: the same amount, converted by molar mass. Activity calls are given as the source filed them. The calls are words filed in the database; no cut-off is given here.

How the values were obtained:
Staphylococcus aureus [1] = assay: Antibacterial activity against Staphylococcus aureus PGI/DML03149 infected in Swiss albino mouse assessed as log reduction at 3 mg/kg administered twice at 1 hr and 5 hrs post infection relative to control; format: functional
Mus musculus [2] = assay: Toxicity in albino mouse assessed as mortality latency at 90 mg/kg, iv; format: organism-based; parameters: dose 90 mg/kg, route intravenous; conditions: in vivo
Mus musculus [3] = assay: Toxicity in albino mouse assessed as mortality latency at 120 mg/kg, iv; format: organism-based; parameters: dose 120 mg/kg, route intravenous; conditions: in vivo
Klebsiella pneumoniae = assay: Antibacterial activity against clinical isolates of Klebsiella pneumoniae GMCH/B0127 after overnight incubation by microdilution broth assay; format: functional
Enterococcus faecalis [4] = assay: Antibacterial activity against clinical isolates of gentamicin-resistant Enterococcus faecalis GMCH/R-Gen011 after overnight incubation by microdilution broth assay; format: functional
Staphylococcus aureus [5] = assay: Antibacterial activity against clinical isolates of methicillin-resistant Staphylococcus aureus PGI/DML03149 after overnight incubation by microdilution broth assay; format: functional
Pseudomonas aeruginosa [6] = assay: Antibacterial activity against clinical isolates of Pseudomonas aeruginosa PGI/DML02084 after overnight incubation by microdilution broth assay; format: functional
Mus musculus [7] = assay: Toxicity in albino mouse assessed as mortality latency at 45 mg/kg, iv; format: organism-based; parameters: dose 45 mg/kg, route intravenous; conditions: in vivo
Mus musculus [8] = assay: Toxicity in albino mouse assessed as mortality latency at 75 mg/kg, iv; format: organism-based; parameters: dose 75 mg/kg, route intravenous; conditions: in vivo
Mus musculus [9] = assay: Toxicity in albino mouse assessed as anorexia at 45 to 150 mg/kg, iv measured for 14 days; format: organism-based; parameters: dose 45-150 mg/kg, route intravenous; conditions: in vivo, 336 h
[10] = Toxicity in albino mouse assessed as mortality at 5 mg/kg, iv; format: organism-based; parameters: dose 5 mg/kg, route intravenous; conditions: in vivo
Escherichia coli [11] = assay: Binding affinity to Escherichia coli PGI/DML02292 DNA at 12 ug/ml after 1 hr by agarose gel electrophoresis
Escherichia coli [12] = assay: Antibacterial activity against Escherichia coli PGI/DML02292 infected in Swiss albino mouse assessed as log reduction at 1 mg/kg administered twice at 1 hr and 5 hrs post infection relative to control; format: functional
Streptococcus pneumoniae [13] = assay: Antibacterial activity against clinical isolates of erythromycin-resistant Streptococcus pneumoniae PGI/DML02213 after overnight incubation by microdilution broth assay; format: functional
Enterococcus faecium [14] = assay: Antibacterial activity against clinical isolates of Enterococcus faecium GMCH/B0102 after overnight incubation by microdilution broth assay; format: functional
Escherichia coli [15] = assay: Antibacterial activity against clinical isolates of Escherichia coli PGI/DML02250 after overnight incubation by microdilution broth assay; format: functional
Enterococcus faecalis [16] = assay: Antibacterial activity against clinical isolates of Enterococcus faecalis GMCH/B0091 after overnight incubation by microdilution broth assay; format: functional
[17] = Toxicity in albino mouse assessed as mortality at 90 mg/kg, iv; format: organism-based; parameters: dose 90 mg/kg, route intravenous; conditions: in vivo
Escherichia coli [18] = assay: Induction of membrane damage in Escherichia coli PGI/DML02292 at 9 ug/ml after 30 mins by propidium iodide staining-based flow cytometry relative to control; format: functional
Mus musculus [19] = assay: Toxicity in albino mouse assessed as syncope at 90 to 150 mg/kg, iv measured for 14 days; format: organism-based; parameters: dose 90-150 mg/kg, route intravenous; conditions: in vivo, 336 h
Pseudomonas aeruginosa [20] = assay: Antibacterial activity against clinical isolates of streptomycin-resistant Pseudomonas aeruginosa PGI/DML01991 after overnight incubation by microdilution broth assay; format: functional
[21] = Toxicity in albino mouse assessed as mortality at 30 mg/kg, iv; format: organism-based; parameters: dose 30 mg/kg, route intravenous; conditions: in vivo
[22] = Toxicity in albino mouse assessed as mortality at 75 mg/kg, iv; format: organism-based; parameters: dose 75 mg/kg, route intravenous; conditions: in vivo
Escherichia coli [23] = assay: Antibacterial activity against Escherichia coli PGI/DML02292 infected in Swiss albino mouse assessed as log reduction at 5 mg/kg administered twice at 1 hr and 5 hrs post infection relative to control; format: functional
[24] = Membrane permeabilization activity assessed as release of calcein from liposomes after 5 mins by fluorescence assay
Escherichia coli [25] = assay: Induction of membrane damage in Escherichia coli PGI/DML02292 at 6 ug/ml after 30 mins by propidium iodide staining-based flow cytometry relative to control; format: functional
Plasma = assay: Drug degradation in human plasma at 1 ug/ml after 24 hrs by RP-HPLC analysis; format: ADME, cell-free
[26] = Toxicity in albino mouse assessed as mortality at 45 mg/kg, iv; format: organism-based; parameters: dose 45 mg/kg, route intravenous; conditions: in vivo
[27] = Membrane permeabilization activity assessed as release of calcein from liposomes at 1:50 lipopeptide:lipid molar ratio after 5 mins by fluorescence assay
Enterococcus faecium [28] = assay: Antibacterial activity against clinical isolates of penicillin-resistant Enterococcus faecium GMCH/R-Pen003 after overnight incubation by microdilution broth assay; format: functional
[29] = tested on: Staphylococcus epidermidis; assay: Antibacterial activity against clinical isolates of ampicillin-resistant Staphylococcus epidermidis GMCH/R-Amp008 after overnight incubation by microdilution broth assay; format: functional
Escherichia coli [30] = assay: Antibacterial activity against Escherichia coli PGI/DML02292 infected in Swiss albino mouse assessed as log reduction at 3 mg/kg administered twice at 1 hr and 5 hrs post infection relative to control; format: functional
Mus musculus [31] = assay: Toxicity in albino mouse assessed as death at 1 to 30 mg/kg, iv measured for 14 days; format: organism-based; parameters: dose 1-30 mg/kg, route intravenous; conditions: in vivo, 336 h
Streptococcus pneumoniae [32] = assay: Antibacterial activity against clinical isolates of Streptococcus pneumoniae PGI/DML02468 after overnight incubation by microdilution broth assay; format: functional
[33] = Membrane permeabilization activity assessed as release of calcein from liposomes at 1:10 lipopeptide:lipid molar ratio after 5 mins by fluorescence assay
Haemophilus influenzae [34] = assay: Antibacterial activity against clinical isolates of Haemophilus influenzae PGI/DML01751 after overnight incubation by microdilution broth assay; format: functional
Escherichia coli [35] = assay: Bactericidal activity against clinical isolates of Escherichia coli PGI/DML02292 assessed as disruption of cell structure at 4 times MIC after 30 mins by transmission electron microscopy relative to control; format: functional, organism-based
[36] = Toxicity in albino mouse assessed as mortality at 60 mg/kg, iv; format: organism-based; parameters: dose 60 mg/kg, route intravenous; conditions: in vivo
Mus musculus [37] = assay: Toxicity in albino mouse assessed as hypoactivity at 45 to 75 mg/kg, iv measured for 14 days; format: organism-based; parameters: dose 45-75 mg/kg, route intravenous; conditions: in vivo, 336 h
Staphylococcus aureus [38] = assay: Antibacterial activity against Staphylococcus aureus PGI/DML03149 infected in Swiss albino mouse assessed as log reduction at 5 mg/kg administered […] at 1 hr post infection relative to control; format: functional
[39] = Cytotoxicity against human HaCaT cells assessed as cell viability at 100 ug/ml after 18 hrs by MTT assay; format: cell-based; conditions: read-out: Activity
Haemophilus influenzae [40] = assay: Antibacterial activity against clinical isolates of ciprofloxacin-resistant Haemophilus influenzae PGI/DML01744 after overnight incubation by microdilution broth assay; format: functional
[41] = (§1) Toxicity in iv dosed albino mouse; format: organism-based; conditions: in vivo
Mus musculus [42] = assay: as §1; format: organism-based; conditions: in vivo
Mus musculus [43] = assay: Toxicity in albino mouse assessed as piloerection at 75 mg/kg, iv measured for 14 days; format: organism-based; parameters: dose 75 mg/kg, route intravenous; conditions: in vivo, 336 h
[44] = tested on: Staphylococcus epidermidis; assay: Antibacterial activity against clinical isolates of Staphylococcus epidermidis GMCH/B0057 after overnight incubation by microdilution broth assay; format: functional
Escherichia coli [45] = assay: Induction of membrane damage in Escherichia coli PGI/DML02292 at 3 ug/ml after 30 mins by propidium iodide staining-based flow cytometry relative to control; format: functional
Mus musculus [46] = assay: Toxicity in albino mouse assessed as mortality latency at 150 mg/kg, iv; format: organism-based; parameters: dose 150 mg/kg, route intravenous; conditions: in vivo

CCCCCCCCCCCCCC(=O)NC(CCCN)C(=O)NC(CCCN)C(=O)NC(CCCN)C(N)=O (stereo unspecified)
FC (Staphylococcus aureus [1]): 2.8
Time (Mus musculus [2]): > 96 h
Time (Mus musculus [3]): > 48 h
MIC (Klebsiella pneumoniae): 4 µg/mL (≈ 7.02 µM)
MIC (Enterococcus faecalis [4]): 4.5 µg/mL (≈ 7.9 µM)
MIC (Staphylococcus aureus [5]): 3.1 µg/mL (≈ 5.44 µM)
MIC (Pseudomonas aeruginosa [6]): 1.5 µg/mL (≈ 2.63 µM)
Time (Mus musculus [7]): > 168 h
Time (Mus musculus [8]): > 120 h
Activity (Mus musculus [9]): Toxic
mortality [10]: 0%
Activity (Escherichia coli [11]): inactive
FC (Escherichia coli [12]): 1.08
MIC (Streptococcus pneumoniae [13]): 4.2 µg/mL (≈ 7.37 µM)
MIC (Enterococcus faecium [14]): 3.5 µg/mL (≈ 6.14 µM)
MIC (Escherichia coli [15]): 2 µg/mL (≈ 3.51 µM)
MIC (Enterococcus faecalis [16]): 1.5 µg/mL (≈ 2.63 µM)
mortality [17]: 60%
Activity (Escherichia coli [18]): 79%
Activity (Mus musculus [19]): Toxic
MIC (Pseudomonas aeruginosa [20]): 2.25 µg/mL (≈ 3.95 µM)
mortality [21]: 0%
mortality [22]: 40%
FC (Escherichia coli [23]): 4.96
Activity [24]: Dose-dependent effect
Activity (Escherichia coli [25]): 54%
Stability (Plasma): Stable
mortality [26]: 15%
Activity [27]: 51%
MIC (Enterococcus faecium [28]): 3.1 µg/mL (≈ 5.44 µM)
MIC [29]: 3.1 µg/mL (≈ 5.44 µM)
FC (Escherichia coli [30]): 3.83
Activity (Mus musculus [31]): Non-toxic
MIC (Streptococcus pneumoniae [32]): 4.5 µg/mL (≈ 7.9 µM)
Activity [33]: 91%
MIC (Haemophilus influenzae [34]): 4.5 µg/mL (≈ 7.9 µM)
Activity (Escherichia coli [35]): Active
mortality [36]: 25%
Activity (Mus musculus [37]): Toxic
FC (Staphylococcus aureus [38]): 3.07
viability at 18 h, 100 ug/ml [39]: 92%
MIC (Haemophilus influenzae [40]): 3.1 µg/mL (≈ 5.44 µM)
LD50 [41]: 81.3 mg/kg
MTD [41]: 30 mg/kg
NOAEL [41]: 30 mg/kg
LOAEL (Mus musculus [42]): 45 mg/kg
MLD (Mus musculus [42]): 45 mg/kg
Activity (Mus musculus [43]): Toxic
MIC [44]: 3.5 µg/mL (≈ 6.14 µM)
Activity (Escherichia coli [45]): 14%
Time (Mus musculus [46]): > 48 h
